From publication PMC5376326, “Inhibition of ANO1 by luteolin and its cytotoxicity in human prostate cancer PC-3 cells” (PLoS ONE, 2017)

Legend:
FRT cells = experiment: Intracellular calcium measurement (Fluo-4) in FRT cells; format: cell-based, rat; settings: 30 and 100 μM, 20 min pretreatment, 100 μM ATP
Description: Intracellular calcium levels were monitored using Fluo-4 NW calcium assay kit (Invitrogen, Carlsbad, CA) as per the manufacturer's protocol in FRT and PC-3 cells. Briefly, the cells were cultured in a 96 well plate and incubated with 100 μL assay buffer including Fluo-4 NW. After 1 hour incubation, Fluo-4 fluorescence was measured with a FLUOstar Omega microplate reader equipped with syringe pumps and custom Fluo-4 excitation/emission filters (485/538 nm). Intracellular calcium increase was induced by application of 100 μM ATP.

PC-3 = test system: PC-3; design: method as in PMID 18008333, PMID 23300633; settings: intraperitoneal 10 mg/kg; PC-3 xenograft mouse; cited from earlier work
ANO1 = molecular target: T1, ANO1 (Homo sapiens, UniProt Q5XXA6, DEL476-501); experiment: Whole-cell patch-clamp in ANO1-expressing FRT cells; format: cell-based; settings: 100 μM ATP, read-out: Inhibition of ANO1 chloride currents
T1 sequence (Q5XXA6 with tags, fused parts or gaps isoform Q5XXA6-5 DEL539-564): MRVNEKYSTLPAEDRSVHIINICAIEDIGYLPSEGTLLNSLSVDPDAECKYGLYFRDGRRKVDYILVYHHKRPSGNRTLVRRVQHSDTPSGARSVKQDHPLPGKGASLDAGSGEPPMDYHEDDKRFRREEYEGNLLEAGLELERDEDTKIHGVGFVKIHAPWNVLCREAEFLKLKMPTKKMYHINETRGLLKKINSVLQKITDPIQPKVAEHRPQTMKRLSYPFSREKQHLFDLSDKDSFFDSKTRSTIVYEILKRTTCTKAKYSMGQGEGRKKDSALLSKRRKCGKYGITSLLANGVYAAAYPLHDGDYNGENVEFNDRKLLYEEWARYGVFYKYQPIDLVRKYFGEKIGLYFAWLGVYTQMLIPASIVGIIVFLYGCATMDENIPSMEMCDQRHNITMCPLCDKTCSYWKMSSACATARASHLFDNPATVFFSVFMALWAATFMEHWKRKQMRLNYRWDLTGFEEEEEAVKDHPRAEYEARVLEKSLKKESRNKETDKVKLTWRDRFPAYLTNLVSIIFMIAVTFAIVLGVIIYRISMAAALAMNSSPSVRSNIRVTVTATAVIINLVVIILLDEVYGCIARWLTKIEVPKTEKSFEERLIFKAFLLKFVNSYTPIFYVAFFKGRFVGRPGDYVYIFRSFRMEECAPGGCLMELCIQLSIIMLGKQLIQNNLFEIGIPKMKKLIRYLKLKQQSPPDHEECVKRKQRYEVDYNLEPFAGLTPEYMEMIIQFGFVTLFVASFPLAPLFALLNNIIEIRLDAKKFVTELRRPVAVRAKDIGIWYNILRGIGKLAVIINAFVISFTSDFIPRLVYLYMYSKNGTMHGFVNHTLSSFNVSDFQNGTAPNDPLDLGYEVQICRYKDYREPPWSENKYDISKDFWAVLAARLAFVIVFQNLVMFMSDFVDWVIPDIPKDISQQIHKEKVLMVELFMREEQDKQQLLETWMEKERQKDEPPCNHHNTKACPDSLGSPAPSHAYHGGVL
Description: Patch-clamp recordings were performed on ANO1-expressing FRT cells using the whole-cell recording configuration. The bath solution contained (in mM): 140 NMDG-Cl, 1 CaCl2, 1 MgCl2, 10 glucose and 10 HEPES (pH 7.4). The pipette solution contained (in mM): 130 CsCl, 0.5 EGTA, 1 MgCl2, 1 Tris-ATP, and 10 HEPES (pH 7.2). Pipettes were pulled from borosilicate glass and had resistances of 3–5 MΩ after fire polishing. Seal resistances were between 3 and 10 GΩ. The liquid junction potential (~2.4 mV) was not corrected. After establishing the whole-cell configuration, whole-cell capacitance and series resistance were compensated with the amplifier circuitry. After establishing the whole-cell configuration, ANO1 was activated by ATP (100 μM). Whole-cell currents were elicited by applying hyperpolarizing and depolarizing voltage pulses from a holding potential of 0 mV to potentials between -80 mV and +80 mV in steps of 20 mV. Recordings were made at room temperature using an Axopatch-200B (Axon Instruments, Union City, CA). Currents were digitized and analyzed using a Digidata 1440A converter (Axon Instruments), and pCLAMP 10.2 software (Molecular Devices, Sunnyvale, CA). Currents were low-pass filtered at 1 kHz and sampled at 5 kHz.

In the case of `O=c1cc(-c2ccc(O)c(O)c2)oc2cc(O)cc(O)c12` [luteolin], the “Effect on ATP-induced cytosolic calcium increase” value (FRT cells) is given as “not affected”, the “Volume and weight of solid tumors” value (PC-3) is given as “significantly decreased” and the inhibition at 10 µM (ANO1; 10 μM) is given as 55.3 ± 2.8%. It also gave an inhibition at 100 µM (ANO1; 100 μM) of 99.2 ± 0.2%.
